# Reference: ChEMBL document CHEMBL3044826, “Design, synthesis and biological evaluation of some novel substituted 2-mercapto-3-phenethylquinazolines as antitumor agents” (2013)
# Tests used:
# Assay type in all cases: functional
# TK-10 = assay: Cytotoxicity against Homo sapiens (human) TK10 cells assessed as growth inhibition at 10 uM after 48 hr by coulter counter analysis; settings: TK-10, 48 h, read-out: GI
# SN12C = assay: Cytotoxicity against Homo sapiens (human) SN12C cells assessed as growth inhibition at 10 uM after 48 hr by coulter counter analysis; settings: read-out: GI
# RXF 393 = assay: Cytotoxicity against Homo sapiens (human) RXF393 cells assessed as growth inhibition at 10 uM after 48 hr by coulter counter analysis; settings: RXF 393, 48 h, read-out: GI
# CAKI-1 = assay: Cytotoxicity against Homo sapiens (human) Caki1 cells assessed as growth inhibition at 10 uM after 48 hr by coulter counter analysis; settings: CAKI-1, 48 h, read-out: GI
# ACHN = assay: Cytotoxicity against Homo sapiens (human) ACHN cells assessed as growth inhibition at 10 uM after 48 hr by coulter counter analysis; settings: read-out: GI
# MDA-MB-468 = assay: Cytotoxicity against Homo sapiens (human) MDA-MB-468 cells assessed as growth inhibition at 10 uM after 48 hr by coulter counter analysis; settings: MDA-MB-468, 48 h, read-out: GI
# MDA-MB-231 = assay: Cytotoxicity against Homo sapiens (human) MDA-MB-231 cells assessed as growth inhibition at 10 uM after 48 hr by coulter counter analysis; settings: MDA-MB-231, 48 h, read-out: GI
# SK-MEL-28 = assay: Cytotoxicity against Homo sapiens (human) SK-MEL-28 cells assessed as growth inhibition at 10 uM after 48 hr by coulter counter analysis; settings: SK-MEL-28, 48 h, read-out: GI
# MDA-MB-435 = assay: Cytotoxicity against Homo sapiens (human) MDA-MB-435 cells assessed as growth inhibition at 10 uM after 48 hr by coulter counter analysis; settings: MDA-MB-435, 48 h, read-out: GI
# M14 = assay: Cytotoxicity against Homo sapiens (human) M14 cells assessed as growth inhibition at 10 uM after 48 hr by coulter counter analysis; settings: M14, 48 h, read-out: GI
# Malme-3M = assay: Cytotoxicity against Homo sapiens (human) MALME-3M cells assessed as growth inhibition at 10 uM after 48 hr by coulter counter analysis; settings: read-out: GI
# LOX IMVI = assay: Cytotoxicity against Homo sapiens (human) LOXIMVI cells assessed as growth inhibition at 10 uM after 48 hr by coulter counter analysis; settings: read-out: GI
# U-251 = assay: Cytotoxicity against Homo sapiens (human) U251 cells assessed as growth inhibition at 10 uM after 48 hr by coulter counter analysis; settings: U-251, 48 h, read-out: GI
# SNB-75 = assay: Cytotoxicity against Homo sapiens (human) SNB75 cells assessed as growth inhibition at 10 uM after 48 hr by coulter counter analysis; settings: SNB-75, 48 h, read-out: GI
# SF-295 = assay: Cytotoxicity against Homo sapiens (human) SF295 cells assessed as growth inhibition at 10 uM after 48 hr by coulter counter analysis; settings: SF-295, 48 h, read-out: GI
# SF-539 = assay: Cytotoxicity against Homo sapiens (human) SF539 cells assessed as growth inhibition at 10 uM after 48 hr by coulter counter analysis; settings: SF-539, 48 h, read-out: GI
# SF-268 = assay: Cytotoxicity against Homo sapiens (human) SF268 cells assessed as growth inhibition at 10 uM after 48 hr by coulter counter analysis; settings: SF-268, 48 h, read-out: GI
# KM12 = assay: Cytotoxicity against Homo sapiens (human) KM12 cells assessed as growth inhibition at 10 uM after 48 hr by coulter counter analysis; settings: KM12, 48 h, read-out: GI
# SW-620 = assay: Cytotoxicity against Homo sapiens (human) SW620 cells assessed as growth inhibition at 10 uM after 48 hr by coulter counter analysis; settings: SW-620, 48 h, read-out: GI
# HT-29 = assay: Cytotoxicity against Homo sapiens (human) HT-29 cells assessed as growth inhibition at 10 uM after 48 hr by coulter counter analysis; settings: HT-29, 48 h, read-out: GI
# HCT-116 = assay: Cytotoxicity against Homo sapiens (human) HCT116 cells assessed as growth inhibition at 10 uM after 48 hr by coulter counter analysis; settings: HCT-116, 48 h, read-out: GI
# HCT-15 = assay: Cytotoxicity against Homo sapiens (human) HCT15 cells assessed as growth inhibition at 10 uM after 48 hr by coulter counter analysis; settings: HCT-15, 48 h, read-out: GI
# HCC 2998 = assay: Cytotoxicity against Homo sapiens (human) HCC2998 cells assessed as growth inhibition at 10 uM after 48 hr by coulter counter analysis; settings: HCC 2998, 48 h, read-out: GI
# [1] = Cytotoxicity against Homo sapiens (human) NCI-ADR-RES cells assessed as growth inhibition at 10 uM after 48 hr by coulter counter analysis; settings: read-out: GI
# OVCAR-8 = assay: Cytotoxicity against Homo sapiens (human) OVCAR8 cells assessed as growth inhibition at 10 uM after 48 hr by coulter counter analysis; settings: OVCAR-8, 48 h, read-out: GI
# OVCAR-5 = assay: Cytotoxicity against Homo sapiens (human) OVCAR5 cells assessed as growth inhibition at 10 uM after 48 hr by coulter counter analysis; settings: OVCAR-5, 48 h, read-out: GI
# OVCAR-4 = assay: Cytotoxicity against Homo sapiens (human) OVCAR4 cells assessed as growth inhibition at 10 uM after 48 hr by coulter counter analysis; settings: OVCAR-4, 48 h, read-out: GI
# UACC-62 = assay: Cytotoxicity against Homo sapiens (human) UACC62 cells assessed as growth inhibition at 10 uM after 48 hr by coulter counter analysis; settings: UACC-62, 48 h, read-out: GI
# SK-MEL-5 = assay: Cytotoxicity against Homo sapiens (human) SK-MEL-5 cells assessed as growth inhibition at 10 uM after 48 hr by coulter counter analysis; settings: SK-MEL-5, 48 h, read-out: GI
# NCI-H322M = assay: Cytotoxicity against Homo sapiens (human) NCI-H322M cells assessed as growth inhibition at 10 uM after 48 hr by coulter counter analysis; settings: read-out: GI
# NCI-H23 = assay: Cytotoxicity against Homo sapiens (human) NCI-H23 cells assessed as growth inhibition at 10 uM after 48 hr by coulter counter analysis; settings: NCI-H23, 48 h, read-out: GI
# HOP-62 = assay: Cytotoxicity against Homo sapiens (human) HOP62 cells assessed as growth inhibition at 10 uM after 48 hr by coulter counter analysis; settings: HOP-62, 48 h, read-out: GI
# EKVX = assay: Cytotoxicity against Homo sapiens (human) EKVX cells assessed as growth inhibition at 10 uM after 48 hr by coulter counter analysis; settings: read-out: GI
# A549 = assay: Cytotoxicity against Homo sapiens (human) A549 cells assessed as growth inhibition at 10 uM after 48 hr by coulter counter analysis; settings: A549, 48 h, read-out: GI
SMILES,inhibition of growth at 10 µM (TK-10),inhibition of growth at 10 µM (SN12C),inhibition of growth at 10 µM (RXF 393),inhibition of growth at 10 µM (CAKI-1),inhibition of growth at 10 µM (ACHN),inhibition of growth at 10 µM (MDA-MB-468),inhibition of growth at 10 µM (MDA-MB-231),inhibition of growth at 10 µM (SK-MEL-28),inhibition of growth at 10 µM (MDA-MB-435),inhibition of growth at 10 µM (M14),inhibition of growth at 10 µM (Malme-3M),inhibition of growth at 10 µM (LOX IMVI),inhibition of growth at 10 µM (U-251),inhibition of growth at 10 µM (SNB-75),inhibition of growth at 10 µM (SF-295),inhibition of growth at 10 µM (SF-539),inhibition of growth at 10 µM (SF-268),inhibition of growth at 10 µM (KM12),inhibition of growth at 10 µM (SW-620),inhibition of growth at 10 µM (HT-29),other results
O=C1c2ccccc2C(=O)N1CCCSc1nc2ccccc2c(=O)n1CCc1ccccc1,< 10%,< 10%,< 10%,34%,< 10%,< 10%,14%,< 10%,< 10%,< 10%,< 10%,< 10%,15%,< 10%,< 10%,< 10%,< 10%,< 10%,< 10%,13%,inhibition of growth at 10 µM (HCT-116): 21%; inhibition of growth at 10 µM (HCT-15): 31%; inhibition of growth at 10 µM (HCC 2998): < 10%; inhibition of growth at 10 µM [1]: < 10%; inhibition of growth at 10 µM (OVCAR-8): < 10%; inhibition of growth at 10 µM (OVCAR-5): < 10%; inhibition of growth at 10 µM (OVCAR-4): < 10%; inhibition of growth at 10 µM (UACC-62): 26%; inhibition of growth at 10 µM (SK-MEL-5): 43%; inhibition of growth at 10 µM (NCI-H322M): < 10%; inhibition of growth at 10 µM (NCI-H23): < 10%; inhibition of growth at 10 µM (HOP-62): < 10%; inhibition of growth at 10 µM (EKVX): 16%; inhibition of growth at 10 µM (A549): 18%
O=c1c2ccccc2nc(SCc2nnc(S)n2Cc2ccccc2)n1CCc1ccccc1,< 10%,< 10%,< 10%,< 10%,< 10%,< 10%,28%,< 10%,< 10%,< 10%,< 10%,14%,< 10%,< 10%,< 10%,< 10%,< 10%,< 10%,< 10%,< 10%,inhibition of growth at 10 µM (HCT-116): 24%; inhibition of growth at 10 µM (HCT-15): < 10%; inhibition of growth at 10 µM (HCC 2998): < 10%; inhibition of growth at 10 µM [1]: 16%; inhibition of growth at 10 µM (OVCAR-8): < 10%; inhibition of growth at 10 µM (OVCAR-5): < 10%; inhibition of growth at 10 µM (OVCAR-4): < 10%; inhibition of growth at 10 µM (UACC-62): 17%; inhibition of growth at 10 µM (SK-MEL-5): < 10%; inhibition of growth at 10 µM (NCI-H322M): < 10%; inhibition of growth at 10 µM (NCI-H23): < 10%; inhibition of growth at 10 µM (HOP-62): < 10%; inhibition of growth at 10 µM (EKVX): 17%; inhibition of growth at 10 µM (A549): 12%
O=c1c2ccccc2nc(SCc2nnc(S)n2-c2ccccc2)n1CCc1ccccc1,< 10%,< 10%,< 10%,17%,< 10%,< 10%,20%,< 10%,< 10%,< 10%,< 10%,< 10%,11%,< 10%,12%,< 10%,< 10%,< 10%,< 10%,< 10%,inhibition of growth at 10 µM (HCT-116): < 10%; inhibition of growth at 10 µM (HCT-15): 25%; inhibition of growth at 10 µM (HCC 2998): < 10%; inhibition of growth at 10 µM [1]: < 10%; inhibition of growth at 10 µM (OVCAR-8): < 10%; inhibition of growth at 10 µM (OVCAR-5): < 10%; inhibition of growth at 10 µM (OVCAR-4): < 10%; inhibition of growth at 10 µM (UACC-62): 19%; inhibition of growth at 10 µM (SK-MEL-5): 24%; inhibition of growth at 10 µM (NCI-H322M): < 10%; inhibition of growth at 10 µM (NCI-H23): < 10%; inhibition of growth at 10 µM (HOP-62): 24%; inhibition of growth at 10 µM (EKVX): 31%; inhibition of growth at 10 µM (A549): < 10%
COc1ccc(-n2c(S)nnc2CSc2nc3ccccc3c(=O)n2CCc2ccccc2)cc1,< 10%,< 10%,< 10%,17%,< 10%,38%,20%,< 10%,< 10%,< 10%,< 10%,< 10%,11%,< 10%,12%,< 10%,< 10%,< 10%,< 10%,< 10%,inhibition of growth at 10 µM (HCT-116): < 10%; inhibition of growth at 10 µM (HCT-15): 25%; inhibition of growth at 10 µM (HCC 2998): < 10%; inhibition of growth at 10 µM [1]: < 10%; inhibition of growth at 10 µM (OVCAR-8): < 10%; inhibition of growth at 10 µM (OVCAR-5): < 10%; inhibition of growth at 10 µM (OVCAR-4): < 10%; inhibition of growth at 10 µM (UACC-62): 19%; inhibition of growth at 10 µM (SK-MEL-5): 24%; inhibition of growth at 10 µM (NCI-H322M): < 10%; inhibition of growth at 10 µM (NCI-H23): < 10%; inhibition of growth at 10 µM (HOP-62): < 10%; inhibition of growth at 10 µM (EKVX): 31%; inhibition of growth at 10 µM (A549): < 10%
